# Results from publication PMC12451337 (ESMO Open, 2025).
# Values joined by “and” are separate entries in the source; they are usually repeats but may differ in a detail not shown here. Identical values can stand only once.
# How the values were obtained:
# [1] = tested on: patients with advanced solid tumors; assay: Phase I dose-escalation trial: safety and tolerability (TEAEs, DLTs, MTD, RP2D)
# Procedure: The study was carried out in compliance with the International Council for Harmonisation Good Clinical Practices, including the ethical principles of the Declaration of Helsinki. All patients provided signed informed consent before any study-specific procedures were carried out.
# For determination of dose escalation, all toxicities, all available PK, and other relevant patient data occurring during the first cycle were considered. In addition, safety in patients ongoing in repeat cycles at lower doses was also taken into consideration by the Cohort Review Committee (CRC; consisting of investigators and the medical monitor), when making dose-escalation decisions. The determination of RP2D included the assessment of acute and chronic toxicities and tolerability (missing doses, dose reductions, etc.) and was informed by the experience of the totality of data. The maximum tolerated dose (MTD) was defined as the highest dose level at which one or fewer of six patients experienced dose-limiting toxicities (DLTs). […] A dose reduction at or after cycle 2 was granted in accordance with dose modification guidelines if, in the opinion of the investigator, a dose reduction was in the best interest of the patient.
# Safety was monitored throughout the study.
# [2] = tested on: polyamine transport in T cells; assay: Whole blood assay: uptake of fluorescently labeled spermine analog by activated T cells (flow cytometry); type: cell-based, human
# Procedure: To evaluate the target engagement activity of AMXT 1501 after administration, an ex vivo pharmacodynamic assay assessing lymphocyte spermine uptake and inhibition of uptake by AMXT 1501 was developed.
# The purpose of the whole blood assay is to quantify the inhibition of polyamine transport in T cells in human subjects receiving AMXT 1501. Whole blood collected from subjects receiving AMXT 1501 was diluted with serum-free media and stimulated with anti-CD3 and anti-CD28 to drive T-cell activation and proliferation for a total of 3 days. During the last 12-18 h of culture, a fluorescently labeled spermine analog (compound 5)[38] was added to the in vitro culture to monitor polyamine uptake into cells. The functional activity (inhibitory effect) of AMXT 1501 on compound 5 uptake by T cells is then determined using flow cytometry by measuring the frequency and mean fluorescence intensity of compound 5+ T cells. Comparisons were made between the uptake in the pretreatment sample and samples taken over time postdose.
# An ex vivo blood-based pharmacodynamic assay was developed to measure the inhibition of uptake of a fluorescently labeled polyamine analog by AMXT 1501 into activated CD4+ lymphocytes in culture. Using a fluorescence-activating cell sorting system, tracking of the cellular uptake of the fluorescence of this labeled polyamine was followed after CD3/CD28 activation.
# tumor cells in culture = assay: Predicted ED95 against tumor cells in culture (nonclinical data); type: cell-based
# polyamine transport = tested on: polyamine transport; set-up: method as in PMID 19281226; conditions: without crossing the cell membrane; cited from earlier work
# clinical = conditions: human, oral
# Procedure: (§1) Blood was obtained from all patients and collected in anticoagulant tubes (K2-EDTA). Plasma samples were stored at −80°C until analysis (both drugs were validated as stable under these storage conditions). The PK analysis population included all patients who received at least one dose of AMXT 1501 and had at least one quantifiable AMXT 1501 plasma concentration postdose.
# [3] = Pharmacokinetics in patients (plasma and tumor biopsy, LC-MS/MS)
# Procedure: as §1
# [4] = whole human blood samples treated with 0-2000 nM AMXT 1501, absence of DFMO
structure (smiles),measurement,setting,value
"CCCCCCCCCCCCCCCC(=O)NCCCC[C@@H](N)C(=O)NCCCNCCCCNCCCN [AMXT 1501, AMXT 1501 dicaprate]","AMXT 1501 dose relationship with proportions of patients with TEAEs, treatment-related TEAEs or SAEs, discontinuation, dose interruption","[1]; human, in vivo",no strong evidence for any AMXT 1501 dose relationship
same,RP2D of AMXT 1501 in the combination,[1]; in combination with DFMO 500 mg b.i.d.,600 mg b.i.d.
same,MTD,"[1]; part 1, when given with DFMO 250 mg b.i.d.",1800 mg o.d.
same,Part 1 AMXT 1501 recommended phase II dose (RP2D),"[1]; part 1, with DFMO 250 mg b.i.d.",1800 mg o.d.
same,Inhibition of fluorescent marker transport with DFMO added to the culture,[2]; DFMO added to the culture,still able to potently inhibit this transport
same,Target engagement in samples taken over time following dosing versus pretreatment,"[2]; ex vivo, patients' blood after oral dosing",sustained AMXT 1501 target engagement activity
same,Concentration of maximal fluorescent-labeled spermine uptake inhibition,[2]; [4],250 nM
same,half maximum inhibitory concentration (ED50),[2]; [4],~75 nM
same,predicted effective dose 95% (ED95),"tumor cells in culture; in combination with DFMO, nonclinical data",100 nM
same,Blocks cellular uptake of spermidine,polyamine transport,nanomolar range
same,Kp,clinical; tumor biopsy / plasma,12
same,concentration at 30 days of treatment,clinical; tumor biopsy,3480 ng/mL and 6.12 µM
same,AMXT 1501 exposure based on mean Cmax versus dose,"[3]; human, in vivo",near dose-proportional
same,Accumulation of AMXT 1501 after repeat dosing,"[3]; human, in vivo",up to 10 fold
same,Effect of DFMO administration on AMXT 1501 exposure,"[3]; human, in vivo",no consistent effect
same,Predose AMXT 1501 plasma concentration,"[3]; human, in vivo",296 ng/mL
same,AMXT 1501 steady state obtained by,"[3]; human, in vivo, po",cycle 1 day 14
"NCCCC(N)(C(=O)O)C(F)F (centres unmarked) [DFMO, difluoromethylornithine, reference compound]",Effect of DFMO addition on uptake of the fluorescent marker,[2]; addition to the culture,increased the uptake of the fluorescent marker
same,predicted ED95 concentration,tumor cells in culture,100 μM and 18 200 ng/ml
same,DFMO exposure versus dose,[3]; between the 500 and 1000 mg/day dose levels,approximately dose-proportional
same,Change in DFMO exposure with repeat dosing,"[3]; human, in vivo",no substantial change
same,Effect of AMXT 1501 dose level on DFMO exposure,"[3]; human, in vivo",no apparent effect
same,Achievement of predicted DFMO ED95 concentration (100 μM) by oral delivery,[3]; in combination with AMXT 1501,unable to achieve this level
